Results published in patent US11986452B2, “Methods of reducing the risk of heart failure” (Amarin Pharmaceuticals Ireland Limited, priority 2021, dated 2024).

Columns and labels:
[1] = tested on: statin-treated patients with elevated triglycerides; assay: Example 3: total (first and subsequent) ischemic events analysis (negative binomial, modified Wei-Lin-Weissfeld, Andersen-Gill, joint frailty); format: in vivo, human; conditions: for Adjusted HR, total events / Unadjusted HR, total events / Adjusted HR, first event / Adjusted HR, second event / Adjusted HR, third event / Unadjusted HR, first event / Unadjusted HR, second event / Unadjusted HR, third event / Adjusted RR, total events / Unadjusted RR, total events / HR, Cardiovascular Death / HR, Non-fatal Cardiovascular Event: vs placebo; for Adjusted HR, first event / Adjusted HR, second event / Adjusted HR, third event / Unadjusted HR, first event / Unadjusted HR, second event / Unadjusted HR, third event: modified WLW; for HR, Cardiovascular Death / HR, Non-fatal Cardiovascular Event: joint frailty model; for Fatal events, %: after reduction
Description: The following study was a multi-center, placebo-controlled clinical trial the details of which are described above in Example 1, the REDUCE-IT design. […] The main outcomes were total primary composite endpoint events defined as cardiovascular death, nonfatal myocardial infarction, nonfatal stroke, coronary revascularization, or hospitalization for unstable angina and total key secondary composite endpoint events defined as cardiovascular death, nonfatal myocardial infarction, or nonfatal stroke. In the context of this study, total events refer to any first event as well as any subsequent event. Differences in total events were determined using other statistical models, including Andersen-Gill, Wei-Lin-Weissfeld (Li and Lagakos), both pre-specified, and a post hoc and joint-frailty analysis.
For the present prespecified analysis, the primary outcome was the total of first plus subsequent ischemic events consisting of the composite of cardiovascular death, nonfatal myocardial infarction, nonfatal stroke, coronary revascularization, or hospitalization for unstable angina. […] Exploratory analyses of the total of first and subsequent events were also performed for the key secondary composite endpoint.
Baseline characteristics were compared between treatment groups using the chi-squared test for categorical variables and the Wilcoxon rank sum test for continuous variables. There are several methods for analyzing first and subsequent (recurrent) event data. As a pre-specified statistical method, a negative binomial regression was used to calculate rates and rate ratios for total cardiovascular events, which accounts for the variability in each patient's risk of events. As pre-specified supportive analyses, the modified Wei-Lin-Weissfeld method (Li and Lagakos modification) was used to calculate hazard ratios (HRs) for the time to the first event, second event, or third event. An additional pre-specified analysis, the Andersen-Gill model using a Cox proportional-hazard with the counting-process formulation was performed to model the total events. In addition, in order to account for informative censoring due to cardiovascular death, the HR for total non-fatal events was calculated using a joint frailty model (See Rondeau V. Joint frailty models for recurring events and death using maximum penalized likelihood estimation: application on cancer events. Biostatistics. 2007; 8:708-21). The joint frailty model simultaneously estimates hazard functions for non-fatal and fatal CV events and takes into account the fact that patients who are prone to have nonfatal events have an elevated risk of a cardiovascular death. The application of the joint frailty model used a gamma distribution for the frailty term.
Statistical analyses using the full adjudicated endpoint events dataset without exclusions using this bundling approach were also determined.

[2] = REDUCE-IT safety: treatment-emergent adverse events, safety population
Description: All adverse events, including observed or volunteered problems, complaints, or symptoms, were recorded on the appropriate CRF. Each adverse event was evaluated for duration, intensity, and causal relationship with the study medication or other factors.
Adverse Events of Special Interest: Bleeding-related adverse events, glucose control (fasting blood glucose and HbA1c), and indicators of hepatic disorders (e.g., ALT or AST increases >3×ULN, total bilirubin increases of ≥2×ULN) were summarized separately and compared between treatment groups.
Analysis of Safety: All analyses of safety were conducted on the safety population, which was defined as all randomized patients. The safety assessment was based on the frequency of adverse events, physical exams, vital signs and safety laboratory tests. AEs with new onset during the study between the initiation of study drug and 30 days after the last dose of study drug for each patient was considered treatment-emergent (TEAEs). This included any AE with onset prior to initiation of study drug and increased severity after the treatment initiation.
This included overall incidence rates (regardless of severity and relationship to study drug), and incidence rates for moderate or severe adverse events. A summary of SAEs and adverse events leading to early discontinuation (for ≥30 days) were presented through data listings. Patients who restarted study drug were included in the summary of AEs leading to discontinuation. Safety laboratory tests and vital signs were summarized by post-treatment change from baseline for each of the parameters using descriptive statistics by treatment group. Those patients with significant laboratory abnormalities were identified in data listings. Additional safety parameters were summarized in data listings.

[3] = key secondary composite endpoint, Andersen-Gill (I), full dataset
[4] = key secondary composite endpoint, Andersen-Gill (I), reduced dataset
[5] = key secondary composite endpoint, Andersen-Gill (II), full dataset
[6] = key secondary composite endpoint, Andersen-Gill (II), reduced dataset
[7] = key secondary composite endpoint, full dataset
[8] = key secondary composite endpoint, reduced dataset
[9] = key secondary composite endpoint, negative binomial, full dataset
[10] = key secondary composite endpoint, negative binomial, reduced dataset
[11] = key secondary endpoint, adjusted, reduced dataset
[12] = key secondary endpoint, unadjusted, reduced dataset
[13] = primary composite endpoint, Andersen-Gill (I), full dataset
[14] = primary composite endpoint, Andersen-Gill (I), reduced dataset
[15] = primary composite endpoint, Andersen-Gill (II), full dataset
[16] = primary composite endpoint, Andersen-Gill (II), reduced dataset
[17] = primary composite endpoint, full dataset
[18] = primary composite endpoint, reduced dataset
[19] = primary composite endpoint, negative binomial, full dataset
[20] = primary composite endpoint, negative binomial, reduced dataset
[21] = primary endpoint, adjusted, reduced dataset
[22] = primary endpoint, unadjusted, reduced dataset
[23] = safety population N = 4089, listed as AMR101
[24] = serious bleeding TEAE, safety population N = 4089

CC/C=C\C/C=C\C/C=C\C/C=C\C/C=C\CCCC(=O)OCC [icosapent ethyl, eicosapentaenoic acid ethyl ester]
Total (first and subsequent) ischemic events for the primary composite endpoint: relative risk reduction ([1]; in vivo): 30%
Adjusted HR, total events [1, 3]: 0.71
Unadjusted HR, total events [1, 3]: 0.71
Adjusted HR, total events [1, 4]: 0.72
Unadjusted HR, total events [1, 4]: 0.72
Adjusted HR, total events [1, 5]: 0.71
Unadjusted HR, total events [1, 5]: 0.71
Adjusted HR, total events [1, 6]: 0.72
Unadjusted HR, total events [1, 6]: 0.72
Adjusted HR, first event [1, 7]: 0.74
Adjusted HR, second event [1, 7]: 0.75
Adjusted HR, third event [1, 7]: 0.79
Unadjusted HR, first event [1, 7]: 0.74
Unadjusted HR, second event [1, 7]: 0.75
Unadjusted HR, third event [1, 7]: 0.79
Adjusted HR, first event [1, 8]: 0.74
Adjusted HR, second event [1, 8]: 0.75
Adjusted HR, third event [1, 8]: 0.79
Unadjusted HR, first event [1, 8]: 0.74
Unadjusted HR, second event [1, 8]: 0.75
Unadjusted HR, third event [1, 8]: 0.79
Adjusted RR, total events [1, 9]: 0.71
Unadjusted RR, total events [1, 9]: 0.71
Adjusted RR, total events [1, 10]: 0.72
Unadjusted RR, total events [1, 10]: 0.71
HR, Cardiovascular Death [1, 11]: 0.79
HR, Non-fatal Cardiovascular Event [1, 11]: 0.68
Fatal events, % ([1]; key secondary endpoint): 45.0%
Total events before reduction, % ([1]; key secondary endpoint, share of overall events): 42.0%
HR, Cardiovascular Death [1, 12]: 0.79
HR, Non-fatal Cardiovascular Event [1, 12]: 0.68
Total key secondary endpoint events: RR vs placebo ([1]; negative binomial): 0.72
Adjusted HR, total events [1, 13]: 0.68
Unadjusted HR, total events [1, 13]: 0.68
Adjusted HR, total events [1, 14]: 0.69
Unadjusted HR, total events [1, 14]: 0.69
Adjusted HR, total events [1, 15]: 0.68
Unadjusted HR, total events [1, 15]: 0.68
Adjusted HR, total events [1, 16]: 0.69
Unadjusted HR, total events [1, 16]: 0.69
Adjusted HR, first event [1, 17]: 0.75
Adjusted HR, second event [1, 17]: 0.68
Adjusted HR, third event [1, 17]: 0.70
Unadjusted HR, first event [1, 17]: 0.76
Unadjusted HR, second event [1, 17]: 0.69
Unadjusted HR, third event [1, 17]: 0.70
Adjusted HR, first event [1, 18]: 0.75
Adjusted HR, second event [1, 18]: 0.68
Adjusted HR, third event [1, 18]: 0.69
Unadjusted HR, first event [1, 18]: 0.76
Unadjusted HR, second event [1, 18]: 0.69
Unadjusted HR, third event [1, 18]: 0.69
Adjusted RR, total events [1, 19]: 0.69
Unadjusted RR, total events [1, 19]: 0.67
Adjusted RR, total events [1, 20]: 0.70
Unadjusted RR, total events [1, 20]: 0.68
HR, Cardiovascular Death [1, 21]: 0.80
HR, Non-fatal Cardiovascular Event [1, 21]: 0.67
Fatal events, % ([1]; primary endpoint): 45.0%
Total events after reduction, % ([1]; primary endpoint, multiple endpoints in a single calendar day handled as a single event): 41.0%
HR, Cardiovascular Death [1, 22]: 0.80
HR, Non-fatal Cardiovascular Event [1, 22]: 0.66
Adverse event rate: anemia ([2]; 4 g/day): 4.7%
Adverse event rate: atrial fibrillation ([2]; 4 g/day): 5.3%
Adverse event rate: diarrhea ([2]; 4 g/day): 9%
Adverse event rate: gastrointestinal adverse events ([2]; 4 g/day): 33.0%
Adverse event rate: peripheral edema ([2]; 4 g/day): 6.5%
Atrial fibrillation or flutter requiring hospitalization (prespecified adjudicated tertiary endpoint) ([2]; 4 g/day): 3.1%
Tolerability; rates of serious adverse events versus placebo ([2]; in vivo): well tolerated
Serious TEAE ([2]; safety population N = 4089): (30.6%)
Serious TEAE (≥2%): Pneumonia ([2]; safety population N = 4089): 2.6%
Serious TEAE Leading to Death ([2]; safety population N = 4089): (2.3%)
Serious TEAE Leading to Withdrawal of Study Drug ([2]; safety population N = 4089): (2.2%)
Serious bleeding TEAE: Bleeding related disorders ([2]; safety population N = 4089): (2.7%)
Serious bleeding TEAE: Central nervous system bleeding ([2]; safety population N = 4089): (0.3%)
Serious bleeding TEAE: Gastrointestinal bleeding ([2]; safety population N = 4089): (1.5%)
Serious bleeding TEAE: Other bleeding ([2]; safety population N = 4089): (1.0%)
Subjects with at Least One TEAE ([2]; safety population N = 4089): (81.8%)
TEAE Leading to Withdrawal of Study Drug ([2]; safety population N = 4089): (7.9%)
Serious bleeding TEAE: Bleeding related disorders [2, 23]: 2.7%
Serious bleeding TEAE: Central nervous system bleeding [2, 23]: 0.3%
Serious bleeding TEAE: Gastrointestinal bleeding [2, 23]: 1.5%
Patients with Bleeding-Related Disorders, % [2, 24]: (2.7%)
Patients with Bleeding-Related Disorders, number [2, 24]: 111
